Patent publication US7815905B2, “Methods of increasing insulin sensitivity or decreasing insulin secretion by administering corticotropin releasing factor receptor-2 inhibitors” (Research Development Foundation, priority 2006, dated 2010)
Entries after “also recorded” stand apart in the source; their conditions may differ. Ends that are not written are not given here.

Assays:
Ucn 2 null mice [1] = test: Glucose tolerance test (GTT) in Ucn 2 null mice; assay type: in vivo, mouse; settings: fasted male Ucn 2 null mice; 0.1 μg/kg IP 20 min prior to glucose 2 g/kg
Procedure: (§1) FIG. 1a-f: Metabolic phenotype of Ucn 2 null mice. […] The ability of the Ucn 2 null mice and wild type littermates to handle a glucose load was assessed using a standard glucose tolerance test (see example 1). Fasted male mice were injected intraperitoneally (IP) with glucose (2 g/kg body weight) and blood glucose levels were measured before and at 15, 30, 60, 90 and 120 min following glucose injection. […] Fasted male Ucn 2 null mice were injected IP with saline or with 0.1 μg/kg body weight Ucn 2, 20 min prior to glucose injection (2 g/kg body weight) and blood glucose levels were measured before and at 15, 30, 60 and 90 min following glucose injection. […] Fasted male wild type mice were injected IP with saline or with astressin2B (30 μg/kg body weight), 20 min prior to glucose injection (2 g/kg body weight), and blood glucose levels were measured before and at 15, 30, 60 and 90 min following glucose injection. (d) The enhanced glucose tolerance in the Ucn 2 null mice is not due to increased insulin secretion. Fasted male mice were injected with glucose (3 g/kg body weight, IP) and blood samples were collected at 2, 5, 15 and 30 min following glucose injection and insulin was measured by radioimmunoassay. […] Fasted male mice were injected with insulin (0.75 U/kg body weight, IP) and blood glucose levels were measured before and at 15, 30, 60 and 90 min following insulin injection. […]

Ucn 2 null mice [2] = test: Insulin tolerance test (ITT) in Ucn 2 null mice; assay type: in vivo, mouse; settings: fasted male Ucn 2 null mice; 0.1 μg/kg IP 20 min prior to insulin 0.75 U/kg
Procedure: as §1

[3] = tested on: insulin signaling in C2C12 myotubes; test: Phosphorylation studies of insulin signaling in C2C12 myotubes; assay type: cell-based
Procedure: FIG. 3a-l: Urocortin 2 effects on muscle glucose uptake are mediated by inhibition of insulin signaling. (a-f). Ucn 2 inhibits the insulin-induced Akt and ERK1/2 phosphorylation but not the insulin receptor phosphorylation. Differentiated C2C12 myotubes were pre-incubated with or without Ucn 2 peptide (0.1, 1 or 10 nM) for 1 hour prior to insulin treatment (10 nM, 5 min). Cell lystates were resolved using 4-12% gradient polyacrylamide gels. Gels were electrophorectically transferred to membranes and probed with antibodies specific for the phospho proteins pAkt (Ser 473), pERK1/2 or pIR (Tyr1146). Stimulation of Akt, ERK or insulin receptor (IR) activation was calculated by fold activation of the phosphorylated form normalized to total and compared with the untreated controls (a, d and f, graphs). […] (g-j) Ucn 2 treatment increases the phosphorylation of serine residue 307 and not the tyrosin phosphorylation of IRS-1. Myotube cells, treated with or without PKA inhibitor (H-89), were incubated with insulin and different concentrations of Ucn 2. IRS-1 immunoprecipitated proteins were electrophoresed as before and the immunoblots were probed for phosphorylated tyrosin (g), phosphorylated serine 307 IRS-1 (i) and total IRS-1 (g, i). […] (k) The effect of Ucn 2 on [^3H]2-deoxy-D-glucose uptake in differentiated C2C12 myotubes. Cells were incubated for 2 hours in low glucose, serum free medium and treated with Ucn 2 (0.1, 1 or 10 nM) or without (control) for 30 min prior to insulin administration (10 nM). Glucose uptake was measured 5 min following exposure to [^3H]2-deoxy-D-glucose. Non-specific uptake was measured by incubating muscle tissue with cytochalasin B, which binds to the glucose uptake transporter (GLUT) and inhibits glucose transport into the cell. Specific uptake was calculated by subtracting non specific from total glucose. (l) Schematic representation of the putative cellular mechanisms mediating the effect of Ucn 2 and CRFR2 on the insulin signaling and glucose uptake in skeletal muscle cells. * indicates p<0.05 vs. no treatment. # indicates p<0.05 vs. insulin treatment (b, d, f) or p<0.05 vs. insulin treatment and Ucn 2 (i).
Differentiated C2C12 myotubes were pre-incubated with or without Ucn 2 peptide (0.1, 1 or 10 nM) for 1 hour prior to insulin treatment (10 nM, 5 min). Cells were harvested immediately in 100 μl of sample treatment buffer [STB, 50 mM Tris (pH 6.8), 100 mM dithiothreitol, 2% (wt/vol) sodium dodecyl sulfate, 0.1% (wt/vol) bromphenol blue, and 10% (wt/vol) glycerol]. The samples were boiled for 5 min, proteins were electrophoresed on 4-12% sodium dodecyl sulfate-polyacrylamide gradient gel (Invitrogen Life Technologies), subsequently transferred onto nitrocellulose membranes, and probed with antibodies specific for phosphorylated Akt (Ser 473, Cell Signaling Technology, Inc., Beverly, Mass.), phosphorylated ERK1/2-p42, 44 (Santa Cruz Biotechnology, Inc., Santa Cruz, Calif.), phosphorylated insulin receptor (Tyr 1146, Cell Signaling Technology, Inc.), or phosphorylated IRS1 (Ser 307, Upstate Cell Signaling Solutions, Lake placid, NY). The membranes were washed with phosphate buffer saline containing 0.05% (vol/vol) Tween 20 and incubated with horseradish peroxidase-conjugated anti mouse or rabbit IgG raised in sheep (Amersham Biotech Pharmacia). Immunoreactive proteins were visualized using Super Signal West Pico Chemiluminescent substrate (Pierce, Rockford, Ill.). The relative protein levels were determined using densitometry (Image quant 1.2) by probing the membranes with antibodies directed against total proteins.

C2C12 myotubes = test: [3H]2-deoxy-D-glucose uptake in C2C12 myotubes; assay type: cell-based; settings: 0.1, 1 or 10 nM for 30 min prior to insulin 10 nM
Procedure: FIG. 3a-l: Urocortin 2 effects on muscle glucose uptake are mediated by inhibition of insulin signaling. (a-f). Ucn 2 inhibits the insulin-induced Akt and ERK1/2 phosphorylation but not the insulin receptor phosphorylation. Differentiated C2C12 myotubes were pre-incubated with or without Ucn 2 peptide (0.1, 1 or 10 nM) for 1 hour prior to insulin treatment (10 nM, 5 min). Cell lystates were resolved using 4-12% gradient polyacrylamide gels. Gels were electrophorectically transferred to membranes and probed with antibodies specific for the phospho proteins pAkt (Ser 473), pERK1/2 or pIR (Tyr1146). Stimulation of Akt, ERK or insulin receptor (IR) activation was calculated by fold activation of the phosphorylated form normalized to total and compared with the untreated controls (a, d and f, graphs). […] (g-j) Ucn 2 treatment increases the phosphorylation of serine residue 307 and not the tyrosin phosphorylation of IRS-1. Myotube cells, treated with or without PKA inhibitor (H-89), were incubated with insulin and different concentrations of Ucn 2. […] Glucose uptake was measured 5 min following exposure to [^3H]2-deoxy-D-glucose. Non-specific uptake was measured by incubating muscle tissue with cytochalasin B, which binds to the glucose uptake transporter (GLUT) and inhibits glucose transport into the cell. Specific uptake was calculated by subtracting non specific from total glucose. […]

[4] = 0.1, 1 or 10 nM for 1 hour prior to insulin 10 nM, 5 min
[5] = IRS-1 immunoprecipitates, insulin and Ucn 2

**Q.** What does the source list for “Ucn 2: Urocortin 2, member of the CRF family, CRFR2 agonist; synthetic peptide (IVLSLDVPIGLLQILLEQARARAAREQATTNARILARVGHC; ends and bridges not checked; UniProt Q96RP3 72-112, looked up)”?
**A.** blood glucose in glucose tolerance test (Ucn 2 null mice [1]): restores blood glucose to wild type levels; blood glucose in insulin tolerance test (Ucn 2 null mice [2]): restored blood glucose levels to those of wild type mice; also recorded: restores blood glucose to wild type levels; insulin-induced ERK1/2 phosphorylation [3, 4]: reduces; also recorded: inhibited; also recorded: dose dependently inhibits; insulin-induced phosphorylation of Akt (Ser 473) [3, 4]: reduces; also recorded: inhibits the insulin-induced phosphorylation of Akt in a dose dependent fashion; also recorded: dose dependently inhibits; insulin-induced phosphorylation of the insulin receptor (Tyr1146) [3, 4]: no significant differences; phosphorylation of IRS-1 on serine residue 307 [3, 5]: greatly increases; also recorded: strongly increases; tyrosine phosphorylation of IRS-1 in response to insulin [3, 5]: remains unchanged; insulin induced glucose uptake (C2C12 myotubes): reduces; also recorded: dose dependently inhibited
